Source: patent US7655434B2, “Live-cell biosensor polypeptides and methods of use” (The Board of Trustees of the Leland Stanford Junior …, priority 2004, dated 2010)

Assays:
RBL-FMB cells [1] = experiment: Mitotic index by immunofluorescence; format: cell-based, rat; settings: 20 hours
Experimental: Mitotic index was determined as previously described (Jordan et al., […] 56:816-825 (1996)). Briefly, 15,000 RBL-FMB cells plated in 8 well Labtek chambers (Nalge Nunc, Naperville, Ill.) and exposed to paclitaxel (Sigma Aldrich, St Louis) for 20 hours. The cells were fixed and permeablized with −20° C. cold methanol for 5 minutes at −20° C. They were blocked with 10% fetal calf serum in PBS for 10 minutes at RT. Alpha Tubulin was detected with a mouse monoclonal antibody clone GTU-88 (Sigma Aldrich, St. Louis Mo.). DNA was stained with Hoescht 33342 (Molecular Probes, Eugene, Oreg.). Only cells that were clearly in metaphase or anaphase were counted as a percentage of the total. The cells were imaged with a Zeiss epifluorescence microscope (Carl Zeiss, Germany).

RBL-FMB cells [2] = experiment: TIRF based mitosis monitoring system, cells treated with TAXOL; format: cell-based, rat
Experimental: Rat Basophilic Leukemia Cells (RBL) were grown in Dulbecco's modified Eagles Media (DMEM) supplemented with 10% fetal calf serum, 2 mM glutamine, 100 U/ml penicillin, and 100 μg/ml streptomycin (all from Invitrogen, Carlsbad, Calif.). 10 million cells were electroporated (BioRad, Hercules, Calif.) in 600 μl of media with 40 μg of pFMB. These were allowed to recover for 48 hours and cells stably expressing the biosensor were selected for by the addition of 1 μg/ml Geneticin (Invitrogen, Carlsbad, Calif.). 10 days after the addition of Geneticin the cells were sorted based on EYFP fluorescence using a fluorescence activated cell sorter.
TIRF microscopy was carried out as described previously (Tengholm et al., Science's Stke. 2003 PL4 (2004)). Briefly, an argon-ion laser provided 514-nm laser light for excitation of the biosensor (Lexel Laser, Fremont, Calif.). Exposure of the RBL-FMBs to laser light was controlled by a Uniblitz shutter (Vincent, Rochester, N.Y.). Laser light homogenized with a rotating diffuser (Physical Optics, Torrance, Calif.) was refocused onto a dove prism at an angle yielding total internal reflection (>[…] for a glass-water interface at 37° C.). The excitation light could also be redirected to the back of the microscope and down to the sample via appropriate dichroic mirrors (Chroma Technology, Brattleboro, Vt.) for epi-illumination. Fluorescence was recorded at 530 nm with bandpass interference filters (30-50 nm half-bandwidth; Chroma Technology, Brattleboro, Vt.) mounted in a Sutter Lambda 10-2 filter wheel (Sutter Instrument, Novato, Calif.). Images were captured every 2 minutes with a cooled CCD camera (Micromax; Roper Scientific, Tuscon, Azir.). The shutters, filter wheel, and camera were controlled by Metamorph software (Universal Imaging, Downington, Pa.).
Both systems were heated with an ASI 400 Air Stream Incubator (Nevtek, Burnsville, Va.). The cells were perfused with fresh growth media saturated with 10% CO2 that was heated with an inline solution heater (Warner Instruments, Hamden, Conn.).
Metamorph software (Universal Imaging, Downington Pa.) was used for data image analysis. Fluorescence intensity was recorded over the entire stack of images by drawing regions of interest over each mitotic cell. Background correction was performed by subtracting the intensity of a background region of identical size next to each cell to account for the somewhat uneven background in the field of view over the time of the data collection. Background corrected intensity values were exported to a Microsoft Excel file and plotted. NEB was determined as the time just prior to the dramatic increase in fluorescence intensity. Anaphase onset is defined as the time point immediately preceding the second smaller increase in fluorescence. NER was determined as the point in time when fluorescence intensity starts to decrease back to baseline levels.

Hela cells = settings: cited from earlier work

CC(=O)O[C@H]1C(=O)[C@@]2(C)[C@H]([C@H](OC(=O)c3ccccc3)[C@]3(O)C[C@H](OC(=O)[C@H](O)[C@@H](NC(=O)c4ccccc4)c4ccccc4)C(C)=C1C3(C)C)[C@]1(OC(C)=O)CO[C@@H]1C[C@@H]2O [TAXOL™, paclitaxel]
percentage of mitotic cells (mitotic index) (RBL-FMB cells [1]; higher taxol concentrations): increased | effects on mitotic index (RBL-FMB cells [1]; low TAXOL concentrations): went unseen | Mitotic arrest (RBL-FMB cells [2]; 10 nM): arrested for the duration of the experiment | Anaphase-NER Ave. (RBL-FMB cells [2]; [Taxol] 0.01): 8.4 min | Anaphase-NER Med. (RBL-FMB cells [2]; [Taxol] 0.01): 8 min | NEB-NER Med. (RBL-FMB cells [2]; [Taxol] 0.01): 34 min | NEB-anaphase Ave. (RBL-FMB cells [2]; [Taxol] 0.01): 28.4 min | NEB-anaphase Med. (RBL-FMB cells [2]; [Taxol] 0.01): 26 min | NEB-NER Ave. (RBL-FMB cells [2]; [Taxol] 0.01 (10 pM in text)): 35.6 min | Anaphase-NER Ave. (RBL-FMB cells [2]; [Taxol] 0.1): 8.8 min | Anaphase-NER Med. (RBL-FMB cells [2]; [Taxol] 0.1): 8 min | NEB-NER Ave. (RBL-FMB cells [2]; [Taxol] 0.1): 38.1 min | NEB-NER Med. (RBL-FMB cells [2]; [Taxol] 0.1): 36 min | NEB-anaphase Ave. (RBL-FMB cells [2]; [Taxol] 0.1): 29.6 min | NEB-anaphase Med. (RBL-FMB cells [2]; [Taxol] 0.1): 26 min | Anaphase-NER Ave. (RBL-FMB cells [2]; [Taxol] 1): 10.3 min | Anaphase-NER Med. (RBL-FMB cells [2]; [Taxol] 1): 10 min | NEB-NER Ave. (RBL-FMB cells [2]; [Taxol] 1): 40.0 min | NEB-NER Med. (RBL-FMB cells [2]; [Taxol] 1): 38 min | NEB-anaphase Ave. (RBL-FMB cells [2]; [Taxol] 1): 29.8 min | NEB-anaphase Med. (RBL-FMB cells [2]; [Taxol] 1): 28 min | Anaphase-NER Ave. (RBL-FMB cells [2]; [Taxol] 3): 10.3 min | Anaphase-NER Med. (RBL-FMB cells [2]; [Taxol] 3): 8 min | NEB-NER Ave. (RBL-FMB cells [2]; [Taxol] 3): 62.8 min | NEB-NER Med. (RBL-FMB cells [2]; [Taxol] 3): 50 min | NEB-anaphase Ave. (RBL-FMB cells [2]; [Taxol] 3): 44.6 min | NEB-anaphase Med. (RBL-FMB cells [2]; [Taxol] 3): 34 min | Anaphase-NER Ave. (RBL-FMB cells [2]; [Taxol] 4): 9.8 min | Anaphase-NER Med. (RBL-FMB cells [2]; [Taxol] 4): 10 min | NEB-NER Ave. (RBL-FMB cells [2]; [Taxol] 4): 89.7 min | NEB-NER Med. (RBL-FMB cells [2]; [Taxol] 4): 70 min | NEB-anaphase Ave. (RBL-FMB cells [2]; [Taxol] 4): 77.7 min | NEB-anaphase Med. (RBL-FMB cells [2]; [Taxol] 4): 60 min | Anaphase-NER Ave. (RBL-FMB cells [2]; [Taxol] 5): 11.3 min | Anaphase-NER Med. (RBL-FMB cells [2]; [Taxol] 5): 12 min | NEB-NER Ave. (RBL-FMB cells [2]; [Taxol] 5): 112.2 min | NEB-NER Med. (RBL-FMB cells [2]; [Taxol] 5): 102 min | NEB-anaphase Ave. (RBL-FMB cells [2]; [Taxol] 5): 107.4 min | NEB-anaphase Med. (RBL-FMB cells [2]; [Taxol] 5): 114 min | Anaphase-NER Ave. (RBL-FMB cells [2]; [Taxol] 6): 13.3 min | Anaphase-NER Med. (RBL-FMB cells [2]; [Taxol] 6): 11 min | NEB-NER Ave. (RBL-FMB cells [2]; [Taxol] 6): 194.5 min | NEB-NER Med. (RBL-FMB cells [2]; [Taxol] 6): 186 min | NEB-anaphase Ave. (RBL-FMB cells [2]; [Taxol] 6): 183.3 min | NEB-anaphase Med. (RBL-FMB cells [2]; [Taxol] 6): 175 min | Anaphase-NER Ave. (RBL-FMB cells [2]; [Taxol] 7.5): 12.3 min | Anaphase-NER Med. (RBL-FMB cells [2]; [Taxol] 7.5): 12 min | NEB-NER Ave. (RBL-FMB cells [2]; [Taxol] 7.5): 202.1 min | NEB-NER Med. (RBL-FMB cells [2]; [Taxol] 7.5): 195 min | NEB-anaphase Ave. (RBL-FMB cells [2]; [Taxol] 7.5): 171.1 min | NEB-anaphase Med. (RBL-FMB cells [2]; [Taxol] 7.5): 166 min | Anaphase-NER Ave. (RBL-FMB cells [2]; [Taxol] 8): 12.1 min | Anaphase-NER Med. (RBL-FMB cells [2]; [Taxol] 8): 12 min | NEB-NER Ave. (RBL-FMB cells [2]; [Taxol] 8): 192.7 min | NEB-NER Med. (RBL-FMB cells [2]; [Taxol] 8): 189 min | NEB-anaphase Ave. (RBL-FMB cells [2]; [Taxol] 8): 180.3 min | NEB-anaphase Med. (RBL-FMB cells [2]; [Taxol] 8): 178 min | anaphase to NER phase (post-checkpoint) (RBL-FMB cells [2]; increasing TAXOL): smaller and ungraded effects | timing between NEB and anaphase (pre-checkpoint mitosis phase) (RBL-FMB cells [2]; increasing TAXOL): significantly prolonged | microtubule stabilization effect, concentration range (Hela cells): nM concentration range
